From patent publication US9642831B2, “Substituted chromanes and method of use” (AbbVie S.á.r.l., priority 2014, dated 2017)

Columns and labels:
F508delCFTR [1] = target: T1, F508delCFTR (Homo sapiens, UniProt P13569, DEL508-508); test: Cell Surface Expression-Horse Radish Peroxidase (CSE-HRP) assay; format: cell-based; parameters: expressed in transfected cells; host or cells: CFBE41o- human lung derived epithelial cell line, doxycycline-inducible; details: CFBE4lo-F508delCFTR-HRP cells; for EC50: 18-24 hours at 33° C., 8-point curve, highest concentration 20 μM, luminescence readout; for Emax: maximum % activity at any tested concentration, normalized to on-plate positive control (3 μM Example 1)
T1 sequence (P13569 with tags, fused parts or gaps DEL508-508): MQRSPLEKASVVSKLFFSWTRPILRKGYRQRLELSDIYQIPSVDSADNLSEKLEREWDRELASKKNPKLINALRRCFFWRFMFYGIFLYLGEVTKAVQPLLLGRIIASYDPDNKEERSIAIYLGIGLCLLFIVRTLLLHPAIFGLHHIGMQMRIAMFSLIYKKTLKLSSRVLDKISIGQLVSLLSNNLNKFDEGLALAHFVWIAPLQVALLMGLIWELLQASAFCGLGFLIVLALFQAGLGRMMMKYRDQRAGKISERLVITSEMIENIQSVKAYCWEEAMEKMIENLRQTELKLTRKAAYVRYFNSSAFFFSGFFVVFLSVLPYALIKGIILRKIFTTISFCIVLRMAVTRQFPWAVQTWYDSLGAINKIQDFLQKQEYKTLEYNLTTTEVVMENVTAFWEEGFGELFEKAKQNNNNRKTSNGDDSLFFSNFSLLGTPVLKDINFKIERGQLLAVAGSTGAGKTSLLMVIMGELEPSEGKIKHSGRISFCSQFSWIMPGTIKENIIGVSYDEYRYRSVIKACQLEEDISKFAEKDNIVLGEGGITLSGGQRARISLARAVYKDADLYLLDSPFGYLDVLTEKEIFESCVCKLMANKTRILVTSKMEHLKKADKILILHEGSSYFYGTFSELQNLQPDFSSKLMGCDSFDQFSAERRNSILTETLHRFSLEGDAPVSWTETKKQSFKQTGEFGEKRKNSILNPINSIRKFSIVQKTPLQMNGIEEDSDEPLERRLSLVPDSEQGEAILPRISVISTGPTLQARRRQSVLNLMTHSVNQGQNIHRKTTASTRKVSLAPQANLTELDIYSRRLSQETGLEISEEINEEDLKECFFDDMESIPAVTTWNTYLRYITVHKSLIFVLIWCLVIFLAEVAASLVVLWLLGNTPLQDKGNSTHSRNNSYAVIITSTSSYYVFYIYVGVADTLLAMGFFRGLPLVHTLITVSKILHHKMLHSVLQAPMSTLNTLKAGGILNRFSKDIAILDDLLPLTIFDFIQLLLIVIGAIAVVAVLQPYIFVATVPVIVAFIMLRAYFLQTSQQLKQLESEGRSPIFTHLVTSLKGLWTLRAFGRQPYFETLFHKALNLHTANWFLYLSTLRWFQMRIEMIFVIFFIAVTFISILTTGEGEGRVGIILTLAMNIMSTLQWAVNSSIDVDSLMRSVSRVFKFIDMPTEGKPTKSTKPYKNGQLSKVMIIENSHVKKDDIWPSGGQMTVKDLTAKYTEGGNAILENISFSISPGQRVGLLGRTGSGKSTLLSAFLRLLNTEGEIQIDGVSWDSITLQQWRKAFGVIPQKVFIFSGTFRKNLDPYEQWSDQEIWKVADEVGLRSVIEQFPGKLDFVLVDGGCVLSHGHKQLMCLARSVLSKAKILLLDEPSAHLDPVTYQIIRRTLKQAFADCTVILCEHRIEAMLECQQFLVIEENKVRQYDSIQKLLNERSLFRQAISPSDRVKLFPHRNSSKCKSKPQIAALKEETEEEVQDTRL
Summary of the method: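 Following 18-24 h compound exposure at 33° C. Expression was doxycycline-induced beforehand. % activity versus DMSO and a 3 μM corrector control gave maximum activity and EC50 from a variable-Hill sigmoidal fit.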

F508delCFTR [2] = target: T1, F508delCFTR; test: Transepithelial Clamp Circuit (TECC-24) conductance assay on primary human bronchial epithelial cells (hBE-TECC); format: cell-based; parameters: cells isolated from CF patients with the homozygous mutation; endogenous in cells; host or cells: primary human bronchial epithelial (hBE) cells from F508del/F508del CF patients; details: for EC50: primary hBE cells from F508del/F508delCFTR patients, corrector 18-24 hours at 37° C., equivalent short circuit current (Ieq), with control potentiator 1 μM; for Emax: relative to positive control (3 μM Example 1 coupled with control potentiator = 100%), primary hBE F508del/F508del cells, read-out: Maximum % activity (%)
From the text: Transepithelial Clamp Circuit on Human Bronchial Epithelial Cells Conductance Assay:
A cell based assay using the primary human bronchial epithelial cells (hBE) was used as a secondary assay to test novel F508delCFTR correctors for their activity on primary hBE cells with F508del/F508del CFTR mutation. The assay used a TECC-24 (Transepithelial Clamp Circuit for 24 wells) instrument that measures the functionality of the mutated channel by measuring the equivalent short circuit current (Ieq) generated by the polarized epithelial cells. The instrument works by measuring the transepithelial potential difference (Vt) and transepithelial resistance (Rt) in an open circuit format, and the Ieq is calculated by using Ohms law (Ieq=Vt/Rt). The assay was run in a 24-well format and all 24-wells were measured at the same time point giving a higher throughput for this assay.
Primary human bronchial epithelial (hBE) cells from F508del/F508delCFTR patients were expanded from 1×10^6 to 250×10^6 cells (Neuberger T, Burton B, Clark H and VanGoor F; Cystic Fibrosis, Methods in Mole Biol 741; eds. Amaral M D and Kunzelmann K, 2011). For this purpose, cells isolated from CF patients with the homozygous mutation were seeded onto 24 well Corning (Cat #3378) filter plates that were coated with 3T3 conditioned media and grown at an air-liquid interface for 35 days using an Ultroser® G supplemented differentiation media. Apical surface mucus was removed 72 hours before the experiment using 3 mM dithiothreitol (DTT) in phosphate buffered saline (PBS). The apical surface was washed again 24 hours before the experiment using PBS. The cells were incubated with the desired dose response of the corrector compounds 18-24 hours at 37° C., 5% CO2. The corrector compounds are only added on the basolateral side of the epithelial cells.
On the day of measuring the corrector activity on the TECC, the cells were switched into a bicarbonate and serum free F-12 Coon's medium and allowed to equilibrate for 90 minutes in a CO2 free incubator. At the time of measurement, the apical and basolateral sides of the filter were bathed with the F-12 Coon's modification media (with 20 mM 4-(2-hydroxyethyl)-1-piperazineethanesulfonic acid (HEPES), pH 7.4 (using 1 M tris(hydroxymethyl)aminormethane (Tris)), and the measurements were made at 36.5° C. Transepithelial voltage (Vt) and transepithelial resistance (Rt) were measured using a 24 channel transepithelial current clamp (TECC-24). Current responses to the sequential addition of benzamil (apical 6 μM addition; for inhibiting epithelial ENaC channel), forskolin (apical and basolateral 10 μM addition; for activating the CFTR channel), control potentiator (N-(3-carbamoyl-5,5,7,7-tetramethyl-4,7-dihydro-5H-thieno[2,3-c]pyran-2-yl)-1H-pyrazole-5-carboxamide; apical and basolateral 1 μM addition; for potentiating the CFTR channel) and bumetanide (basolateral 20 μM addition; for inhibiting the Na:2Cl:K co-transporter, an indirect measure of inhibiting the Cl-secretion driven by CFTR channel) were measured.
All plates contained negative controls (dimethyl sulfoxide, DMSO) which coupled with the control potentiator (N-(3-carbamoyl-5,5,7,7-tetramethyl-4,7-dihydro-5H-thieno[2,3-c]pyran-2-yl)-1H-pyrazole-5-carboxamide) sets the null response and positive controls (3 μM of 3-[(2R,4R)-4-({[1-(2,2-difluoro-1,3-benzodioxol-5-yl)cyclopropyl]carbonyl}amino)-7-methoxy-3,4-dihydro-2H-chromen-2-yl]benzoic acid) coupled with the control potentiator sets the 100% response to measure the correction of the mutated CFTR channel. The maximum percent activity is reported relative to the positive control value.
The % activity measured at each of the 6 test concentrations of the test compound was normalized to the on-plate positive control using the following formula: % activity=[(test compound response−DMSO response)/(positive control response−DMSO response)]*100 […]

CYP3A4 = CYP3A4 induction in primary human hepatocytes (mRNA, RT-PCR); details: test compounds 10 μM, 48 hours, % of response of positive control (Rifampin 10 μM)
Method: Cryopreserved primary human hepatocytes were thawed and cultured overnight prior to treatment. […] Following the 48 hour treatment, hepatocytes were harvested for RNA isolation and reverse transcription, followed by CYP3A4 mRNA quantitation using RT-PCR (real time reverse transcript polymerase chain reaction).
Fold Induction=Fold of Treated/Fold of Vehicle Control % positive control=(Fold Induction of Treated−1)/(Fold Induction of Prototypical Inducer−1)

`COc1ccc2c(n1)O[C@@H](c1cccc(C(=O)O)c1)C[C@H]2NC(=O)C1(c2ccc3c(c2)OC(F)(F)O3)CC1` (racemic) [Example 28, rac-3-[(2R,4R)-4-({[1-(2,2-difluoro-1,3-benzodioxol-5-yl)cyclopropyl]carbonyl}amino)-7-methoxy-3,4-dihydro-2H-pyrano[2,3-b]pyridin-2-yl]benzoic acid] showed an EC50 (F508delCFTR [1]) of 3240 nM, an Emax (F508delCFTR [1]) of 98% and an EC50 (F508delCFTR [2]) of 3400 nM. The Emax (F508delCFTR [2]) was 51% and the “CYP3A4 Hepatocytes mRNA % of positive control” value (“CYP3A4 Hepatocytes mRNA %” for short) (CYP3A4) was 9.41%.

With `COc1ccc2c(c1)O[C@@H](c1cccc(C(=O)O)c1)C[C@H]2NC(=O)C1(c2ccc3c(c2)OC(F)(F)O3)CC1` [Example 1, 3-[(2R,4R)-4-({[1-(2,2-difluoro-1,3-benzodioxol-5-yl)cyclopropyl]carbonyl}amino)-7-methoxy-3,4-dihydro-2H-chromen-2-yl]benzoic acid] the EC50 (F508delCFTR [1]) was 280 nM, the Emax (F508delCFTR [1]) was 102% and the EC50 (F508delCFTR [2]) was 290 nM. For the same compound, the Emax (F508delCFTR [2]) was 95% and the “CYP3A4 Hepatocytes mRNA %” value (CYP3A4) was 14%.

`O=C(O)c1cccc([C@H]2C[C@@H](NC(=O)C3(c4ccc5c(c4)OC(F)(F)O5)CC3)c3ccccc3O2)c1` [Example 9, 3-[(2R,4R)-4-({[1-(2,2-difluoro-1,3-benzodioxol-5-yl)cyclopropyl]carbonyl}amino)-3,4-dihydro-2H-chromen-2-yl]benzoic acid] was tested, and the EC50 (F508delCFTR [1]) was 420 nM, the Emax (F508delCFTR [1]) was 84% and the EC50 (F508delCFTR [2]) was 160 nM. The Emax (F508delCFTR [2]) was 92% and the “CYP3A4 Hepatocytes mRNA %” value (CYP3A4) was 16.1%.

For `COc1ccc2c(c1)O[C@@H](c1ccc(OC)c(OC)c1)C[C@H]2NC(=O)C1(c2ccc3c(c2)OC(F)(F)O3)CC1` [Example 3, 1-(2,2-difluoro-1,3-benzodioxol-5-yl)-N-[(2R,4R)-2-(3,4-dimethoxyphenyl)-7-methoxy-3,4-dihydro-2H-chromen-4-yl]cyclopropanecarboxamide], the EC50 (F508delCFTR [1]) was 390 nM, the Emax (F508delCFTR [1]) was 135% and the “CYP3A4 Hepatocytes mRNA %” value (CYP3A4) was 49.3%.

Compound `O=C(O)c1cccc([C@H]2C[C@@H](NC(=O)C3(c4ccc5c(c4)OC(F)(F)O5)CC3)c3cccc(F)c3O2)c1` [Example 119, 3-[(2R,4R)-4-({[1-(2,2-difluoro-1,3-benzodioxol-5-yl)cyclopropyl]carbonyl}amino)-8-fluoro-3,4-dihydro-2H-chromen-2-yl]benzoic acid] has an EC50 (F508delCFTR [1]) of 880 nM, an Emax (F508delCFTR [1]) of 71% and an EC50 (F508delCFTR [2]) of 450 nM. It also gave an Emax (F508delCFTR [2]) of 80%.

In the case of `O=C(O)c1ccc([C@H]2C[C@@H](NC(=O)C3(c4ccc5c(c4)OC(F)(F)O5)CC3)c3ccccc3O2)cc1` [Example 121, 4-[(2R,4R)-4-({[1-(2,2-difluoro-1,3-benzodioxol-5-yl)cyclopropyl]carbonyl}amino)-3,4-dihydro-2H-chromen-2-yl]benzoic acid], the EC50 (F508delCFTR [1]) is reported as 130 nM, the Emax (F508delCFTR [1]) is reported as 102% and the EC50 (F508delCFTR [2]) is reported as 38 nM. For the same compound, the Emax (F508delCFTR [2]) was 87%.

`COc1ccc2c(c1)[C@H](NC(=O)C1(c3ccc4c(c3)OC(F)(F)O4)CC1)C[C@H](c1cccc(C(=O)O)c1)O2` [Example 19, 3-[(2R,4R)-4-({[1-(2,2-difluoro-1,3-benzodioxol-5-yl)cyclopropyl]carbonyl}amino)-6-methoxy-3,4-dihydro-2H-chromen-2-yl]benzoic acid] showed an EC50 (F508delCFTR [1]) of 630 nM, an Emax (F508delCFTR [1]) of 103% and an EC50 (F508delCFTR [2]) of 210 nM. For the same compound, the Emax (F508delCFTR [2]) was 111% and the “CYP3A4 Hepatocytes mRNA %” value (CYP3A4) was 9.38%.

Compound `O=C(O)c1cccc([C@H]2C[C@@H](NC(=O)C3(c4ccc5c(c4)OC(F)(F)O5)CC3)c3ccc(C(F)(F)F)cc3O2)c1` [Example 108, 3-[(2R,4R)-4-({[1-(2,2-difluoro-1,3-benzodioxol-5-yl)cyclopropyl]carbonyl}amino)-7-(trifluoromethyl)-3,4-dihydro-2H-chromen-2-yl]benzoic acid] has an EC50 (F508delCFTR [1]) of 340 nM, an Emax (F508delCFTR [1]) of 115% and an EC50 (F508delCFTR [2]) of 86 nM. The Emax (F508delCFTR [2]) was 96% and the “CYP3A4 Hepatocytes mRNA %” value (CYP3A4) was 39.6%.

Work on `O=C(O)C1CCCC([C@H]2C[C@@H](NC(=O)C3(c4ccc5c(c4)OC(F)(F)O5)CC3)c3ccc(OC(F)F)cc3O2)C1` (stereo partly drawn) [Example 26, 3-[(2R,4R)-4-({[1-(2,2-difluoro-1,3-benzodioxol-5-yl)cyclopropyl]carbonyl}amino)-7-(difluoromethoxy)-3,4-dihydro-2H-chromen-2-yl]cyclohexanecarboxylic acid] yielded an EC50 (F508delCFTR [1]) of 340 nM, an Emax (F508delCFTR [1]) of 93% and an EC50 (F508delCFTR [2]) of 110 nM. It also gave an Emax (F508delCFTR [2]) of 88%.

`COc1ccc2c(c1)O[C@@H](c1ccc(C(=O)O)c(F)c1)C[C@H]2NC(=O)C1(c2ccc3c(c2)OC(F)(F)O3)CC1` [Example 139, 4-[(2R,4R)-4-({[1-(2,2-difluoro-1,3-benzodioxol-5-yl)cyclopropyl]carbonyl}amino)-7-methoxy-3,4-dihydro-2H-chromen-2-yl]-2-fluorobenzoic acid] gave an EC50 (F508delCFTR [1]) of 100 nM, an Emax (F508delCFTR [1]) of 115% and an EC50 (F508delCFTR [2]) of 31.3 nM. For the same compound, the Emax (F508delCFTR [2]) was 100%.

In the case of `O=C(O)c1cccc([C@H]2C[C@@H](NC(=O)C3(c4ccc5c(c4)OC(F)(F)O5)CC3)c3ccc(F)cc3O2)c1` [Example 38, 3-[(2R,4R)-4-({[1-(2,2-difluoro-1,3-benzodioxol-5-yl)cyclopropyl]carbonyl}amino)-7-fluoro-3,4-dihydro-2H-chromen-2-yl]benzoic acid], the “CYP3A4 Hepatocytes mRNA %” value (CYP3A4) is reported as 40.2%.

Work on `O=C(O)c1cccc([C@H]2C[C@@H](NC(=O)C3(c4ccc5c(c4)OC(F)(F)O5)CC3)c3ccc(OC(F)F)cc3O2)c1` [Example 27, 3-[(2R,4R)-4-({[1-(2,2-difluoro-1,3-benzodioxol-5-yl)cyclopropyl]carbonyl}amino)-7-(difluoromethoxy)-3,4-dihydro-2H-chromen-2-yl]benzoic acid] yielded an EC50 (F508delCFTR [1]) of 120 nM, an Emax (F508delCFTR [1]) of 113% and an EC50 (F508delCFTR [2]) of 75 nM. For the same compound, the Emax (F508delCFTR [2]) was 117%.

In the case of `Cc1ccc2c(c1)[C@H](NC(=O)C1(c3ccc4c(c3)OC(F)(F)O4)CC1)C[C@H](c1cccc(C(=O)O)c1)O2` [Example 14, 3-[(2R,4R)-4-({[1-(2,2-difluoro-1,3-benzodioxol-5-yl)cyclopropyl]carbonyl}amino)-6-methyl-3,4-dihydro-2H-chromen-2-yl]benzoic acid], the EC50 (F508delCFTR [1]) is reported as 850 nM, the Emax (F508delCFTR [1]) is reported as 78% and the “CYP3A4 Hepatocytes mRNA %” value (CYP3A4) is reported as 3.54%.

With `COc1ccc2c(c1)O[C@@H](C13CC(C(=O)O)(C1)C3)C[C@H]2NC(=O)C1(c2ccc3c(c2)OC(F)(F)O3)CC1` (racemic) [Example 148, rac-3-[(2R,4R)-4-({[1-(2,2-difluoro-1,3-benzodioxol-5-yl)cyclopropyl]carbonyl}amino)-7-methoxy-3,4-dihydro-2H-chromen-2-yl]bicyclo[1.1.1]pentane-1-carboxylic acid] the EC50 (F508delCFTR [1]) was 2120 nM, the Emax (F508delCFTR [1]) was 77% and the EC50 (F508delCFTR [2]) was 1100 nM. The Emax (F508delCFTR [2]) was 44%.
